# Measured values reported in patent US5612317A, “Method for delivering estrogen” (priority 1994, dated 1997).
# How the values were obtained:
# [1] = injected into normal women; cited from earlier work
# [2] = Circulating concentration of 17β-estradiol and estrone in ovariectomized rats after daily oral dosing for two weeks (radioimmunoassay); type: in vivo; details: six ovariectomized rats per group
# Protocol: De-conjugation of estradiol-3-(β-glucoside) to estradiol will occur slowly in peripheral tissues, and therefore, will maintain circulating levels of estradiol at a more physiologic level for a longer period of time. A study in humans with the vitamin D-3β-glucoside was conducted as a model compound. The blood level of vitamin D after an equimolar dose of vitamin D3 and vitamin D3 -3β-glucoside was compared. […] Thus, from this single dose vitamin D-glucoside study, there would not appear to be any hazard to the prolonged duration of action of the estradiol resulting from the slow de-conjugation of the estradiol-3-(β-glucoside). A study in ovariectomized rats was also conducted to determine the blood level of estradiol and estrone after receiving three different doses of either estradiol or estradiol-3-(β-glucoside) orally each day for two weeks. […] Thus, estradiol-3-(β-glucoside) will increase circulating concentrations of estradiol.
# In vivo rat studies were carried out where estradiol-3-(β-glucoside) was given orally for two weeks to ovariectomized rats.
# Circulating concentration of 17β-estradiol and estrone
# in six ovariectomized rats per group that received an oral
# dose of either 17β-estradiol or 17β-estradiol-3 β-
# glucoside (estradiol-glc) each day for two weeks.
# [3] = Side-effects and vaginal bleeding in ovariectomized rats dosed orally for two weeks; type: in vivo
# Description: Based on the results in rats and humans with the model vitamin D-3β-glucoside and experience with giving estradiol-3-(β-glucoside) to ovariectomized rats, there is no indication of potential additive or multiplicative toxicity.
# estradiol receptor = details: "there is evidence"; no method given; cited from earlier work
# [4] = Incubation of 3H-vitamin D3-glucoside with rat intestinal homogenate, reverse phase HPLC; type: in vitro ADME; details: 3 hours at 37° C
# Protocol: FIG. 1A and FIG. 1B depict reverse phase HPLC (2% H2 O/methanol, 1.5 ml/min) of ^3 H-vitamin D3 -glucoside before (FIG. 1A) and after (FIG. 1B) incubation with rat intestinal homogenate for 3 hours at 37° C.
# (§1) A study was conducted whereby ^3 H-vitamin D3 -3β-glucoside was incubated with intestine and kidney homogenates. […] Therefore, the same results for estradiol-3β-glucoside would be expected since vitamin D and estradiol are both fat soluble sterols.
# [5] = Incubation of 3H-vitamin D3-glucoside with rat kidney homogenate, reverse phase HPLC; type: in vitro ADME; details: 3 hours at 37° C
# Protocol: FIG. 1C depicts reverse phase HPLC (2% H2 O/methanol, 1.5 ml/min) of ^3 H-vitamin D3 -glucoside after incubation with rat kidney homogenate for 3 hours at 37° C.
# as §1
# [6] = listed as 3 H-vitamin D3 -glucoside
compound,measurement,setting,value
C[C@]12CC[C@@H]3c4ccc(O)cc4CC[C@H]3[C@@H]1CC[C@H]2O[C@@H]1O[C@H](CO)[C@@H](O)[C@H](O)[C@H]1O [17α-estradiol-17-glucoside],Metabolite recovered in urine,[1],the 3-glucuronide derivatives of each compound were recovered in the urine
C[C@]12CC[C@@H]3c4ccc(O)cc4CC[C@H]3[C@@H]1CC[C@@H]2OC1O[C@H](CO)[C@@H](O)[C@H](O)[C@H]1O (stereo partly drawn) [17β-estradiol-17-glucoside],Metabolite recovered in urine,[1],the 3-glucuronide derivatives of each compound were recovered in the urine
"C[C@]12CC[C@@H]3c4ccc(O)cc4CC[C@H]3[C@@H]1CC[C@@H]2O [estradiol, 17β-estradiol, reference compound]",Blood concentration of estradiol,"[2]; dose 1, each day for two weeks",3.5 ± 0.7 pg/mL
same,Blood concentration of estradiol,"[2]; dose 10, each day for two weeks",8.7 ± 2.1 pg/mL
same,Blood concentration of estradiol,"[2]; dose 15, each day for two weeks",46.8 ± 10.4 pg/mL
same,Untoward side-effects or vaginal bleeding,"[3]; oral, two weeks, ovariectomized rats",No untoward side-effects or vaginal bleeding was noted
"C[C@]12CC[C@@H]3c4ccc(O[C@@H]5O[C@H](CO)[C@@H](O)[C@H](O)[C@H]5O)cc4CC[C@H]3[C@@H]1CC[C@@H]2O [estradiol-glc, 17β-estradiol-3β-glucoside]",Untoward side-effects or vaginal bleeding,"[3]; rat, in vivo, po",No untoward side-effects or vaginal bleeding was noted
same,Interaction with the estradiol receptor,estradiol receptor,does not interact with the estradiol receptor
C=C1CC[C@H](O[C@@H]2O[C@H](CO)[C@@H](O)[C@H](O)[C@H]2O)C/C1=C/C=C1\CCC[C@]2(C)[C@@H]([C@H](C)CCCC(C)C)CC[C@@H]12 [vitamin D3 -3β-glucoside],Metabolism of the glucoside / formation of 3H-vitamin D3,[4],None of the vitamin D3 -3β-glucoside was metabolized in the intestinal homogenates
same,Metabolism of the glucoside / formation of 3H-vitamin D3,[4]; [6],No ^3 H-vitamin D3 was formed
same,De-conjugation of the glucoside / formation of 3H-vitamin D3,[5]; listed as 3 H-vitamin D3 -3β-glucoside,only the kidney homogenate was capable of removing the glucoside from vitamin D3
same,De-conjugation of the glucoside / formation of 3H-vitamin D3,[5]; [6],formation of ^3 H-vitamin D3
same,De-conjugation of the glucoside / formation of 3H-vitamin D3,[5]; listed as vitamin D-3β-glucoside,β-glucosidase(s) in the kidney are able to de-conjugate the β-glucoside from the vitamin D-3β-glucoside
